Source: patent US5506213A, “Adminstration of 2'-halo-2'-deoxy adenosine to treat inflammatory bowel disease” (priority 1994, dated 1996)
Read-outs that look alike come from different tables or passages of the source.

Tests used:
normal human monocytes = test: In vitro cytotoxicity toward human monocytes (MTT reduction assay); type: cell-based; conditions: for IC50: Homo sapiens, Monocyte
Source text: The percentage of viable cells remaining after treatment (ordinate) is plotted against the concentration of CdA utilized (abscissa), on a linear scale.
Peripheral blood monocytes and lymphocytes were isolated by well known methods from normal subjects. […] The human fibroblast cell line GMO1380 was obtained originally from the NIGMS Human Genetic Mutant Cell Repository, Camden, N.J., and cultured under the same conditions as above. That cell line was from a normal fetal lung.
Meth., 65: 55-63. After culturing for up to five days, 3-(4,5-dimethylthiazol-2-yl)-2,5-diphenyl tetrazolium bromide (MTT) at 0.2 mg (40 μl) was admixed with each well and the incubation was continued for another 4 hours. The plates were then centrifuged at 1000×g for 10 minutes, and supernatants were carefully aspirated with a finely drawn pipette.
Acidified isopropanol (100 μl; using 0.04N HCl) was added to each well.
Viable cell numbers were determined using a Dynatech microplate spectrophotometer, measuring absorbance at a wavelength of 570 nanometers (nm), using a reference wavelength of 630 nm.

monocytes = test: Monocyte phagocytosis of antibody-coated erythrocytes; type: cell-based, human; conditions: three days
Experimental: FIG. 6 is a graph that illustrates the effects of relatively low doses of CdA used to contact monocytes for a 72 hour time period. Monocyte release of interleukin-6 (IL-6; closed diamonds) and phagocytosis of antibody-coated red blood cells (RBC; closed squares) were examined, as was the viability of the cultured monocytes (open squares). Effects are expressed as a percentage of control values versus the CdA concentration in nanomoles (nM).
The effects of sub-lethal CdA concentrations on monocyte function in vitro was also studied. Cells were contacted and cultured with CdA (5-20 nM) for three days, after which phagocytosis and supernatant IL-6 activity were assayed.
Monocyte phagocytosis was assayed using autologous erythrocyte targets, sensitized with a subagglutinating titer of rabbit anti-human erythrocyte IgG (Cappel, Malvern, Pa.). Monocytes (2×10^5 cells/well) were exposed to sub-toxic concentrations of CdA in microwell plates for 72 hours. Complete medium was replaced with medium containing 10% fetal bovine serum, and a suspension of sensitized erythrocytes (0.25% packed cell volume) was added to the adherent monocyte layers. After incubation for 4 hours at 37 degrees C., the degree of phagocytosis was quantitated by the spectrophotometric method of Jungi (1985) J. Immunol. Meth., 82:141-153. […]

autoantibody production = test: 2-Chlorodeoxyadenosine in autohemolytic anemia patients; type: in vivo, human
Source text: Thus, the present invention provides a method for decreasing the number of circulating blood monocytes.

rheumatoid arthritis = test: CdA 5-day continuous infusion in rheumatoid arthritis patients: cell counts and joint parameters; type: in vivo, human
Experimental: FIG. 7 is a graph showing the results of a study of the cytotoxicity of CdA toward monocytes and lymphocytes of a rheumatoid arthritis patient receiving CdA therapy. A continuous intravenous infusion of CdA (0.1 mg/ml in isotonic saline) was administered at a dosage of 0.1 mg/kg per day for a five-day period. Monocyte numbers are shown as open squares and lymphocyte numbers are shown as closed diamonds. Three cycles of infusions of CdA were given, and are illustrated as open rectangles for the five-day time periods of each infusion at a position in the graph above the days in the treatment regimen on which infusions were given.
A study similar to that described in Example 1 was carried out with three patients having rheumatoid arthritis. In each instance, the patient had been unsuccessfully treated with methotrexate, a gold salt or penicillamine, which treatment had been stopped three weeks prior to the first treatment with CdA. […]
A specially trained nurse examined the number of swollen and painful joints in each of the patients prior to the start of each treatment. The values obtained are as listed for each patient.
PIP joint measurements refer to the total arthrocircameter measurements, in mm, of each proximal interphalangeal (PIP) joint, for each patient. Values are shown for each of the three patients.
Each patient was asked to rank his or her performance of nine function parameters on a 0 to 10 scale, 10 being the highest. These function parameters were: turning in bed, rising from a chair, buttoning buttons, combing hair, walking, turning knobs, climbing stairs, getting in and out of an automobile, and general well being. The total score on these nine parameters for each patient is listed as the performance index.

[1] = cited from earlier work
[2] = Pt. # 1, CdA treatment course 1
[3] = Pt. # 1, CdA treatment course 2
[4] = Pt. # 1, CdA treatment course 3
[5] = Pt. # 1, prior to start of CdA treatment course 1
[6] = Pt. # 1, prior to start of CdA treatment course 2
[7] = Pt. # 1, prior to start of CdA treatment course 3
[8] = Pt. # 2, CdA treatment course 1
[9] = Pt. # 2, CdA treatment course 2
[10] = Pt. # 2, CdA treatment course 3
[11] = Pt. # 2, prior to start of CdA treatment course 1
[12] = Pt. # 2, prior to start of CdA treatment course 2
[13] = Pt. # 2, prior to start of CdA treatment course 3
[14] = Pt. # 2, prior to start of CdA treatment course 4
[15] = Pt. # 2, prior to start of CdA treatment course 5
[16] = Pt. # 2, prior to start of CdA treatment course 6
[17] = Pt. # 3, CdA treatment course 1
[18] = Pt. # 3, CdA treatment course 2
[19] = Pt. # 3, CdA treatment course 3
[20] = Pt. # 3, prior to start of CdA treatment course 1
[21] = Pt. # 3, prior to start of CdA treatment course 2
[22] = Pt. # 3, prior to start of CdA treatment course 3
[23] = Pt. # 3, prior to start of CdA treatment course 4

## Nc1nc(Cl)nc2c1ncn2[C@H]1C[C@H](O)[C@@H](CO)O1 [CdA, 2-chloro-9,1'-beta-D-2'-deoxyribosyladenine]
Normal human monocytes; 120 h, five days exposure (FIG. 2), read-out: CdA concentration at which 50 percent of the cultured monocytes were killed
  IC50: 20 nM
Normal human monocytes; another study, freshly isolated monocytes, read-out: CdA concentration at which 50 percent of freshly isolated monocytes were killed
  IC50: 22 nM
Normal human monocytes; deoxycytidine 100 μM
  monocyte sensitivity to CdA in the presence of deoxycytidine: substantially reduced
monocytes; 5-20 nM CdA
  cell viability: unchanged cell viability
monocytes; 10 and 20 nM CdA
  phagocytosis of antibody-coated erythrocyte targets: markedly suppressed
Autoantibody production
  autoantibody production: significant decrease in autoantibody production
  hemolysis: reduction in hemolysis
Rheumatoid arthritis; [2]
  PIP Joint Measurement (Totals, in mm): 583 mm
  Performance Index (total score on nine function parameters, each 0 to 10): 70
Rheumatoid arthritis; [3]
  PIP Joint Measurement (Totals, in mm): 612 mm
  Performance Index (total score on nine function parameters, each 0 to 10): 33
Rheumatoid arthritis; [4]
  PIP Joint Measurement (Totals, in mm): 560 mm
  Performance Index (total score on nine function parameters, each 0 to 10): 27
Rheumatoid arthritis; [5]
  Painful Joints: 73/38
  Swollen Joints: 51/47
Rheumatoid arthritis; [6]
  Painful Joints: 39
  Swollen Joints: 37
Rheumatoid arthritis; [7]
  Painful Joints: 23
  Swollen Joints: 25
Rheumatoid arthritis; [8]
  PIP Joint Measurement (Totals, in mm): 527 mm
  Performance Index (total score on nine function parameters, each 0 to 10): 46
Rheumatoid arthritis; [9]
  PIP Joint Measurement (Totals, in mm): 526 mm
  Performance Index (total score on nine function parameters, each 0 to 10): 28
Rheumatoid arthritis; [10]
  PIP Joint Measurement (Totals, in mm): 531 mm
  Performance Index (total score on nine function parameters, each 0 to 10): 22
Rheumatoid arthritis; Pt. # 2, CdA treatment course 4
  PIP Joint Measurement (Totals, in mm): 498 mm
Rheumatoid arthritis; Pt. # 2, CdA treatment course 5
  PIP Joint Measurement (Totals, in mm): 485 mm
Rheumatoid arthritis; Pt. # 2, CdA treatment course 6
  PIP Joint Measurement (Totals, in mm): 506 mm
Rheumatoid arthritis; [11]
  Painful Joints: 32
  Swollen Joints: 9
Rheumatoid arthritis; [12]
  Painful Joints: 34
  Swollen Joints: 27
Rheumatoid arthritis; [13]
  Painful Joints: 28
  Swollen Joints: 25
Rheumatoid arthritis; [14]
  Painful Joints: 36
  Swollen Joints: 22
Rheumatoid arthritis; [15]
  Painful Joints: 27
  Swollen Joints: 23
Rheumatoid arthritis; [16]
  Painful Joints: 26
  Swollen Joints: 14
Rheumatoid arthritis; [17]
  PIP Joint Measurement (Totals, in mm): 560 mm
  Performance Index (total score on nine function parameters, each 0 to 10): 30
Rheumatoid arthritis; [18]
  PIP Joint Measurement (Totals, in mm): 548 mm
  Performance Index (total score on nine function parameters, each 0 to 10): 36
Rheumatoid arthritis; [19]
  PIP Joint Measurement (Totals, in mm): 549 mm
  Performance Index (total score on nine function parameters, each 0 to 10): 32
Rheumatoid arthritis; Pt. # 3, CdA treatment course 4
  PIP Joint Measurement (Totals, in mm): 602 mm
Rheumatoid arthritis; [20]
  Painful Joints: 36
  Swollen Joints: 16
Rheumatoid arthritis; [21]
  Painful Joints: 40
  Swollen Joints: 17
Rheumatoid arthritis; [22]
  Painful Joints: 54
  Swollen Joints: 14
Rheumatoid arthritis; [23]
  Painful Joints: 59
  Swollen Joints: 11
Rheumatoid arthritis; after infusion of CdA was stopped for each cycle
  time for monocyte numbers to return to approximately pre-treatment number: within about ten days
Rheumatoid arthritis; all three patients, reported by personal physicians
  arthritic disease states at follow-up: had improved
Rheumatoid arthritis; follow-up, two patients, lasted about three years and over one year post treatment
  total white cell count drop from pretreatment values: about 50%
Rheumatoid arthritis; one patient, after CdA treatment
  adverse event leading to drop-out: overwhelming fatigue phenomenon
Rheumatoid arthritis; patient 1, during each CdA administration cycle, 0.1 mg/kg per day, five days
  monocyte number: dropped to substantially zero
Rheumatoid arthritis; patient 1, throughout the one hundred days of the study
  neutrophil and platelet numbers: substantially constant
Rheumatoid arthritis; three rheumatoid arthritis patients
  patients with a reduction in the number of painful or swollen joints: two of the three patients
[1]; humans, infusion
  plasma level at which dose-limiting bone marrow suppression usually occurred: greater than 20 nM
[1]; infusion of 0.1-0.5 mg/kg/day, humans, read-out: plasma concentrations of the drug
  concentration: 10 to 50 nM
[1]; infusion, no nausea, vomiting or fever
  tolerability: well tolerated
